# Biological target: Glutamate NMDA receptor
# Test: Tested for the binding potency against NMDA site of the glutamate receptor complex using rat brain cortical membranes in a competitive binding assay with [3H]CPP as radioligand
# Assay type: cell membranes, Membrane
row,Compound,IC50 [nM]
1,CC(C(=O)C[C@@H](N)C(=O)O)P(=O)(O)O (some centres undefined),1800
2,N[C@H](C/C(CP(=O)(O)O)=N/OCc1ccccc1)C(=O)O,500
3,N[C@H](C/C(CP(=O)(O)O)=N/O)C(=O)O,200
4,COP(=O)(O)CC(=O)CC(N)C(=O)O (centres undefined),5000
5,CO/N=C(/C[C@@H](N)C(=O)O)CP(=O)(O)O,600
6,COC(=O)[C@H](N)CC(=O)CP(=O)(O)O,1700
7,N[C@H](CC(=O)CP(=O)(O)O)C(=O)O,110
8,CC(N)(CC(=O)CP(=O)(O)O)C(=O)O (centres undefined),20000
9,CC(C(=O)CP(=O)(O)O)C(N)C(=O)O (centres undefined),7000

# Source: ChEMBL document CHEMBL1127094, “Competitive NMDA receptor antagonists; (R)-4-Oxo-5-phosphononorvaline structure-activity relationships” (Bioorg Med Chem Lett, 1993)
